24 molecules from patent publication US20250346585A1 (Alexion Pharmaceuticals, Inc., priority 2022, published 2025) can be followed below.

Chain of Human complement C1s enzyme (P09871 438-688 limits assumed): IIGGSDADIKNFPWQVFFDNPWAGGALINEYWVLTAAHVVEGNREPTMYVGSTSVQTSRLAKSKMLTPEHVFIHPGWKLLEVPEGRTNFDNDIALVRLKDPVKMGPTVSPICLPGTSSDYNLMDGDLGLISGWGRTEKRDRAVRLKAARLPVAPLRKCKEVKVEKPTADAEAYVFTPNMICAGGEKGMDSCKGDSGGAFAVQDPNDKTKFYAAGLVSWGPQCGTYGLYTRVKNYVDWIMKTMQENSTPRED
Chain of Human complement C1s enzyme (P09871 16-437 partner limits assumed): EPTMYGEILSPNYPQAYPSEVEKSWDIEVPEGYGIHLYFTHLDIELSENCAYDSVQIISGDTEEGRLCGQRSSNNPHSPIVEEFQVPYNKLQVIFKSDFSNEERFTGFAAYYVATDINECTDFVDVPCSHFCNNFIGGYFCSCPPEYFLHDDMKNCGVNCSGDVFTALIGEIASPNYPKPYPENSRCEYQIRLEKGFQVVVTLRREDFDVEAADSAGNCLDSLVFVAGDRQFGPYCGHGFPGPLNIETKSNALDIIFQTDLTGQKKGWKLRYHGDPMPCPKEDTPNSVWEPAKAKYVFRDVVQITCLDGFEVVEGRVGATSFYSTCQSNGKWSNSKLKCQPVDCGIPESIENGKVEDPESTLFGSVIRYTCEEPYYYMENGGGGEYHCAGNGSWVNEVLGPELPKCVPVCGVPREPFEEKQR

The target of the test is Human complement C1s enzyme (Homo sapiens (Human), UniProt P09871). The test is described as follows: Human C1s enzyme assay. The class given is biochemical. As to conditions: Human complement C1s enzyme 1.16 nM, substrate Z-L-Lys-SBzl 100 μM, assay of Example 3; read-out: IC50 (Stars). In a few lines:
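Purified serum-derived human C1s (1.16 nM final) preincubated 5 min at room temperature with compound in 50 mM Tris, 1 M NaCl, pH 7.5. Z-L-Lys-SBzl thioester substrate and DTNB added (100 μM each, final); A405 read every 30 s for 30 min. IC50 from nonlinear regression of reaction rates against compound concentration.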
In the case of `C[C@@H](NC(=O)[C@@H]1C[C@@H](OC(F)F)CN1C(=O)CNC(=O)c1ccc2c(c1)oc1ccccc12)c1cc(C(=N)N)cs1` [Compound 361, (2S,4R)—N—((R)-1-(4-carbamimidoylthiophen-2-yl)ethyl)-1-((dibenzo[b,d]furan-3-carbonyl)glycyl)-4-(difluoromethoxy)pyrrolidine-2-carboxamide], the IC50 is less than 100 nM.

Turning to `C[C@@H](NC(=O)[C@@H]1C[C@@H](OC(F)F)CN1C(=O)CNC(=O)c1ccc2c(c1)S(=O)(=O)c1ccccc1-2)c1cc(C(=N)N)cs1` [Compound 362, (2S,4R)—N—((R)-1-(4-carbamimidoylthiophen-2-yl)ethyl)-4-(difluoromethoxy)-1-((5,5-dioxidodibenzo[b,d]thiophene-3-carbonyl)glycyl) pyrrolidine-2-carboxamide], the IC50 is less than 100 nM.

`COC[C@@]1(F)C[C@@H](C(=O)N[C@H](C)c2cc(C(=N)N)cs2)N(C(=O)CNC(=O)c2ccc3c(c2)C(C)c2ccccc2-3)C1` (stereo partly drawn) [Compound 363, (2S,4R)—N—((R)-1-(4-carbamimidoylthiophen-2-yl)ethyl)-4-fluoro-4-(methoxymethyl)-1-((9-methyl-9H-fluorene-2-carbonyl)glycyl)pyrrolidine-2-carboxamide]: the IC50 is less than 100 nM.

`COC[C@@]1(F)C[C@@H](C(=O)N[C@H](C)c2cc(C(=N)N)cs2)N(C(=O)CNC(=O)c2cccc(-c3ccc(F)cc3)c2)C1` [Compound 364, (2S,4R)—N—((R)-1-(4-carbamimidoylthiophen-2-yl)ethyl)-4-fluoro-1-((4′-fluoro-[1,1′-biphenyl]-3-carbonyl)glycyl)-4-(methoxymethyl)pyrrolidine-2-carboxamide]: the half-inhibitory concentration (IC50) is less than 100 nM.

For `C[C@@H](NC(=O)[C@@H]1CC2(CN1C(=O)CN1Cc3cc(-c4ccccc4)ccc3C1=O)OCCO2)c1cc(C(=N)N)cs1` [Compound 365, (S)—N—((R)-1-(4-carbamimidoylthiophen-2-yl)ethyl)-7-(2-(1-oxo-5-phenylisoindolin-2-yl)acetyl)-1,4-dioxa-7-azaspiro[4.4]nonane-8-carboxamide], the IC50 is less than 100 nM.

On to `C[C@@H](NC(=O)[C@@H]1CC2(CN1C(=O)CN1Cc3cc(-c4ccc(F)cc4F)ccc3C1=O)OCCO2)c1cc(C(=N)N)cs1` [Compound 366], for which the half-inhibitory concentration (IC50) was less than 100 nM.

As for `C[C@@H](NC(=O)[C@@H]1C[C@]2(COCCN(C)C)C[C@@H]2N1C(=O)CNC(=O)c1ccc2c(c1)-c1ccccc1C2(F)F)c1cc(C(=N)N)cs1` [Compound 367, (1S,3S,5R)—N—((R)-1-(4-carbamimidoylthiophen-2-yl)ethyl)-2-((9,9-difluoro-9H-fluorene-3-carbonyl)glycyl)-5-((2-(dimethylamino)ethoxy)methyl)-2-azabicyclo[3.1.0]hexane-3-carboxamide], the IC50 is less than 100 nM.

Take `C[C@@H](NC(=O)[C@@H]1C[C@](F)(CF)CN1C(=O)CNC(=O)c1ccc2c(c1)C(C)(C)c1ccccc1-2)c1cc(C(=N)N)cs1` [Compound 368, (2S,4R)—N—((R)-1-(4-carbamimidoylthiophen-2-yl)ethyl)-1-((9,9-dimethyl-9H-fluorene-2-carbonyl)glycyl)-4-fluoro-4-(fluoromethyl)pyrrolidine-2-carboxamide]: the 50% inhibitory concentration (IC50) was less than 100 nM.

Consider `C[C@@H](NC(=O)[C@@H]1C[C@@H](S(C)(=O)=O)CN1C(=O)CNC(=O)c1ccc2c(c1)C(C)(C)c1ccccc1-2)c1cc(C(=N)N)cs1` [Compound 369, (2S,4R)—N—((R)-1-(4-carbamimidoylthiophen-2-yl)ethyl)-1-((9,9-dimethyl-9H-fluorene-2-carbonyl)glycyl)-4-(methylsulfonyl)pyrrolidine-2-carboxamide], for which the half-inhibitory concentration (IC50) was less than 100 nM.

On to `C[C@@H](NC(=O)[C@@H]1C[C@H](c2ccncc2)CN1C(=O)CNC(=O)c1ccc2c(c1)-c1ccccc1C2(F)F)c1cc(C(=N)N)cs1` [Compound 370, (2S,4R)—N—((R)-1-(4-carbamimidoylthiophen-2-yl)ethyl)-1-((9,9-difluoro-9H-fluorene-3-carbonyl)glycyl)-4-(pyridin-4-yl)pyrrolidine-2-carboxamide], for which the IC50 is less than 100 nM.

As for `CC1c2ccccc2-c2ccc(C(=O)NCC(=O)N3C[C@@](F)(CF)C[C@H]3C(=O)N[C@H](C)c3cc(C(=N)N)cs3)cc21` (stereo partly drawn) [Compound 371, (2S,4R)—N—((R)-1-(4-carbamimidoylthiophen-2-yl)ethyl)-4-fluoro-4-(fluoromethyl)-1-((9-methyl-9H-fluorene-2-carbonyl)glycyl)pyrrolidine-2-carboxamide], the IC50 is less than 100 nM.

For the molecule `C[C@@H](NC(=O)[C@@H]1C[C@](F)(CF)CN1C(=O)CNC(=O)c1ccc2c(c1)oc1ccccc12)c1cc(C(=N)N)cs1` [Compound 372, (2S,4R)—N—((R)-1-(4-carbamimidoylthiophen-2-yl)ethyl)-1-((dibenzo[b,d]furan-3-carbonyl)glycyl)-4-fluoro-4-(fluoromethyl)pyrrolidine-2-carboxamide], the IC50 was less than 100 nM.

Turning to `COC[C@@]1(F)C[C@@H](C(=O)N[C@H](C)c2cc(C(=N)N)cs2)N(C(=O)CNC(=O)c2ccc3c(c2)Oc2ccccc2S3)C1` [Compound 373, (2S,4R)—N—((R)-1-(4-carbamimidoylthiophen-2-yl)ethyl)-4-fluoro-4-(methoxymethyl)-1-((phenoxathiine-3-carbonyl)glycyl)pyrrolidine-2-carboxamide], the 50% inhibitory concentration (IC50) was less than 100 nM.

On to `C[C@@H](NC(=O)[C@@H]1CC2(CN1C(=O)CNC(=O)c1ccc3c(c1)[nH]c1ccccc13)OCCO2)c1cc(C(=N)N)cs1` [Compound 374, (S)-7-((9H-carbazole-2-carbonyl)glycyl)-N—((R)-1-(4-carbamimidoylthiophen-2-yl)ethyl)-1,4-dioxa-7-azaspiro[4.4]nonane-8-carboxamide], for which the IC50 is less than 100 nM.

For the molecule `C[C@@H](NC(=O)[C@@H]1C[C@](F)(CF)CN1C(=O)CNC(=O)c1ccc2c(c1)S(=O)(=O)c1ccccc1-2)c1cc(C(=N)N)cs1` [Compound 375, (2S,4R)—N—((R)-1-(4-carbamimidoylthiophen-2-yl)ethyl)-1-((5,5-dioxidodibenzo[b,d]thiophene-3-carbonyl)glycyl)-4-fluoro-4-(fluoromethyl)pyrrolidine-2-carboxamide], the IC50 is less than 100 nM.

For `N=C(N)c1csc([C@@H](CO)NC(=O)[C@@H]2CC3(CN2C(=O)CNC(=O)c2ccc4c(c2)-c2ccccc2C4(F)F)OCCO3)c1` [Compound 376, (S)—N—((R)-1-(4-carbamimidoylthiophen-2-yl)-2-hydroxyethyl)-7-((9,9-difluoro-9H-fluorene-3-carbonyl)glycyl)-1,4-dioxa-7-azaspiro [4.4]nonane-8-carboxamide], the half-maximal inhibitory concentration (IC50) is less than 100 nM.

Regarding `C[C@@H](NC(=O)[C@@H]1C[C@@H](c2ccncc2)CN1C(=O)CNC(=O)c1ccc2c(c1)-c1ccccc1C2(F)F)c1cc(C(=N)N)cs1` [Compound 377, (2S,4S)—N—((R)-1-(4-carbamimidoylthiophen-2-yl)ethyl)-1-((9,9-difluoro-9H-fluorene-3-carbonyl)glycyl)-4-(pyridin-4-yl)pyrrolidine-2-carboxamide], the IC50 was less than 100 nM.

In the case of `C[C@@H](NC(=O)[C@@H]1C[C@@H](S(C)(=O)=O)CN1C(=O)CNC(=O)c1ccc2c(c1)sc1ccccc12)c1cc(C(=N)N)cs1` [Compound 378, (2S,4R)—N—((R)-1-(4-carbamimidoylthiophen-2-yl)ethyl)-1-((dibenzo[b,d]thiophene-3-carbonyl)glycyl)-4-(methylsulfonyl)pyrrolidine-2-carboxamide], the IC50 is less than 100 nM.

With `C[C@@H](NC(=O)[C@@H]1C[C@@H](S(C)(=O)=O)CN1C(=O)CNC(=O)c1ccc2c(c1)oc1ccccc12)c1cc(C(=N)N)cs1` [Compound 379, (2S,4R)—N—((R)-1-(4-carbamimidoylthiophen-2-yl)ethyl)-1-((dibenzo[b,d]furan-3-carbonyl)glycyl)-4-(methylsulfonyl)pyrrolidine-2-carboxamide], the IC50 is less than 100 nM.

Consider `CC1(C)c2ccccc2-c2cc(C(=O)NCC(=O)N3C[C@H](S(C)(=O)=O)C[C@H]3C(=O)N[C@H](CO)c3cc(C(=N)N)cs3)ccc21` [Compound 380, (2S,4R)—N—((R)-1-(4-carbamimidoylthiophen-2-yl)-2-hydroxyethyl)-1-((9,9-dimethyl-9H-fluorene-3-carbonyl)glycyl)-4-(methylsulfonyl) pyrrolidine-2-carboxamide], for which the concentration for half-maximal inhibition (IC50) was less than 100 nM.

For `C[C@@H](NC(=O)[C@@H]1C[C@@H](S(C)(=O)=O)CN1C(=O)CNC(=O)c1ccc2c(c1)S(=O)(=O)c1ccccc1-2)c1cc(C(=N)N)cs1` [Compound 381, (2S,4R)—N—((R)-1-(4-carbamimidoylthiophen-2-yl)ethyl)-1-((5,5-dioxidodibenzo[b,d]thiophene-3-carbonyl)glycyl)-4-(methylsulfonyl) pyrrolidine-2-carboxamide], the half-inhibitory concentration (IC50) is less than 100 nM.

With `C[C@@H](NC(=O)[C@@H]1C[C@]2(COCCCN)C[C@@H]2N1C(=O)CNC(=O)c1ccc2c(c1)-c1ccccc1C2(F)F)c1cc(C(=N)N)cs1` [Compound 382, (1S,3S,5R)-5-((3-aminopropoxy)methyl)-N—((R)-1-(4-carbamimidoylthiophen-2-yl)ethyl)-2-((9,9-difluoro-9H-fluorene-3-carbonyl)glycyl)-2-azabicyclo[3.1.0]hexane-3-carboxamide], the half-inhibitory concentration (IC50) was less than 100 nM.

As to `CS(=O)(=O)[C@@H]1C[C@@H](C(=O)N[C@H](CO)c2cc(C(=N)N)cs2)N(C(=O)CNC(=O)c2ncc(-c3ccccc3)cc2F)C1` [Compound 383, N-(2-((2S,4R)-2-(((R)-1-(4-carbamimidoylthiophen-2-yl)-2-hydroxyethyl)carbamoyl)-4-(methylsulfonyl)pyrrolidin-1-yl)-2-oxoethyl)-3-fluoro-5-phenylpicolinamide], the half-inhibitory concentration (IC50) was less than 100 nM.

Take `O=C(NCC(=O)N1CC2(C[C@H]1C(=O)NCc1ccn[nH]1)OCCO2)c1ccc(Oc2ccccc2)cc1` [Compound 384, (S)-N-((1H-pyrazol-5-yl)methyl)-7-((4-phenoxybenzoyl)glycyl)-1,4-dioxa-7-azaspiro[4.4]nonane-8-carboxamide]: the 50% inhibitory concentration (IC50) was more than 1000 nM.

In general, IC50 refers to the midpoint of a concentration-inhibition curve.
